The results in this text go back to PubChem BioAssay AID328 (DTP/NCI, 2004).

For the test, the system named is BDF1 mice, P388 leukemia ip, median survival T/C. Put plainly: NCI In Vivo Anticancer Drug Screen. Data for tumor model P388 Leukemia (intraperitoneal) in B6D2F1 (BDF1) mice. The following applies: endpoint: median survival time, higher = longer survival. The method in brief: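 Vehicle-dosed animals serve as the reference; survival of compound-dosed, tumour-implanted mice is divided by it.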

[1] abbreviates: dose: 100.0 mg/kg/injection, schedule: Q01DX009 (ip), vehicle: Klucel (hydroxypropylcellulose) (HPC).
[2] abbreviates: dose: 200.0 mg/kg/injection, schedule: Q01DX009 (ip), vehicle: Klucel (hydroxypropylcellulose) (HPC).
Setting [3] is: dose: 400.0 mg/kg/injection, schedule: Q01DX009 (ip), vehicle: Klucel (hydroxypropylcellulose) (HPC).
Where [4] appears, read: dose: 6.25 mg/kg/injection, schedule: Q01DX009 (ip), vehicle: saline.
Where [5] appears, read: dose: 12.5 mg/kg/injection, schedule: Q01DX009 (ip), vehicle: saline.
The mark [6] stands for this setting: dose: 25.0 mg/kg/injection, schedule: Q01DX009 (ip), vehicle: saline.
The mark [7] stands for this setting: dose: 50.0 mg/kg/injection, schedule: Q01DX009 (ip), vehicle: saline.
Where [8] appears, read: dose: 100.0 mg/kg/injection, schedule: Q01DX009 (ip), vehicle: saline.
Setting [9] is: dose: 50.0 mg/kg/injection, schedule: Q01DX009 (ip), vehicle: Klucel (hydroxypropylcellulose) (HPC).
The mark [10] stands for this setting: dose: 50.0 mg/kg/injection, schedule: Q04DX003 (ip), vehicle: Klucel (hydroxypropylcellulose) (HPC).
Where [11] appears, read: dose: 100.0 mg/kg/injection, schedule: Q04DX003 (ip), vehicle: Klucel (hydroxypropylcellulose) (HPC).
Where [12] appears, read: dose: 200.0 mg/kg/injection, schedule: Q04DX003 (ip), vehicle: Klucel (hydroxypropylcellulose) (HPC).
Setting [13] is: dose: 100.0 mg/kg/injection, schedule: Q01DX009 (ip), vehicle: saline with Tween-80.
Where [14] appears, read: dose: 100.0 mg/kg/injection, schedule: Q04DX003 (ip), vehicle: saline with Tween-80.
Setting [15] is: dose: 200.0 mg/kg/injection, schedule: Q04DX003 (ip), vehicle: saline with Tween-80.
[16] abbreviates: dose: 400.0 mg/kg/injection, schedule: Q04DX003 (ip), vehicle: saline with Tween-80.
[17] abbreviates: dose: 25.0 mg/kg/injection, schedule: Q01DX009 (ip), vehicle: saline with Tween-80.
The mark [18] stands for this setting: dose: 50.0 mg/kg/injection, schedule: Q01DX009 (ip), vehicle: saline with Tween-80.
Setting [19] is: dose: 200.0 mg/kg/injection, schedule: Q01DX009 (ip), vehicle: saline.
Where [20] appears, read: dose: 400.0 mg/kg/injection, schedule: Q04DX003 (ip), vehicle: Klucel (hydroxypropylcellulose) (HPC).
Setting [21] is: dose: 200.0 mg/kg/injection, schedule: Q01DX009 (ip), vehicle: saline with Tween-80.

Several values for one entry are separate records, joined by “and”; a condition that tells them apart may be missing. Equal entries are not always repeated. Toxic doses and inconclusive results are not listed.

In the case of `CC1(C)C/C(=C\c2ccc(Br)cc2)C(=O)c2ccccc21`, the T/C was 100 % of control under setting [1], 105 % of control under setting [2] and 95 % of control under setting [3].

`CC(C#N)Oc1cccc2ccccc12` (stereo not given): the T/C by setting is: (dose: 2.0 mg/kg/injection, schedule: Q01DX009 (ip), vehicle: DMSO) 96 % of control; (dose: 3.0 mg/kg/injection, schedule: Q01DX009 (ip), vehicle: DMSO) 115 % of control; (dose: 4.5 mg/kg/injection, schedule: Q01DX009 (ip), vehicle: DMSO) 110 % of control; (dose: 6.0 mg/kg/injection, schedule: Q01DX009 (ip), vehicle: DMSO) 110 % of control; (dose: 12.0 mg/kg/injection, schedule: Q01DX009 (ip), vehicle: DMSO) 120 % of control; (dose: 12.5 mg/kg/injection, schedule: Q01DX009 (ip), vehicle: DMSO) 88 % of control. Besides, the T/C runs as follows: (dose: 25.0 mg/kg/injection, schedule: Q01DX009 (ip), vehicle: DMSO) 88 % of control; (dose: 100.0 mg/kg/injection, schedule: Q04DX003 (ip), vehicle: DMSO) 100 % of control.

As to `c1ccc(-c2nn(-c3ccccc3)[n+](-c3cccc4ccccc34)n2)cc1`, the T/C (dose: 2.0 mg/kg/injection, schedule: Q01DX009 (ip), vehicle: saline with Tween-80) is 103 % of control and the T/C (dose: 4.0 mg/kg/injection, schedule: Q01DX009 (ip), vehicle: saline with Tween-80) is 112 % of control.

As to `NCCCNCCCCNCCCN`, the T/C (dose: 50.0 mg/kg/injection, schedule: Q01DX001 (ip), vehicle: saline) was 110 % of control.

Consider `C#CC1(OCC(O)CO)CCCCC1` (stereo not given), for which the T/C (dose: 3.12 mg/kg/injection, schedule: Q01DX009 (ip), vehicle: water) was 107 % of control; the T/C (dose: 6.25 mg/kg/injection, schedule: Q01DX009 (ip), vehicle: water) is 110 % of control; the T/C (dose: 12.5 mg/kg/injection, schedule: Q01DX009 (ip), vehicle: water) is 100 % of control; the T/C (dose: 25.0 mg/kg/injection, schedule: Q01DX009 (ip), vehicle: water) is 110 % of control; the T/C (dose: 50.0 mg/kg/injection, schedule: Q01DX009 (ip), vehicle: water) was 94 % of control; the T/C (dose: 100.0 mg/kg/injection, schedule: Q01DX009 (ip), vehicle: water) is 103 % of control. For the same molecule, the T/C is, setting by setting: (dose: 200.0 mg/kg/injection, schedule: Q01DX009 (ip), vehicle: water) 103 % of control; (dose: 400.0 mg/kg/injection, schedule: Q01DX009 (ip), vehicle: water) 118 % of control.

As for `NNC(=O)C1CC1`, the T/C was 96 % of control under setting [4]; 107 % of control under setting [5]; 100 % of control under setting [6]; 100 % of control (dose: 25.0 mg/kg/injection, schedule: Q04DX003 (ip), vehicle: saline); 100 % of control under setting [7]; 100 % of control (dose: 50.0 mg/kg/injection, schedule: Q04DX003 (ip), vehicle: saline). In addition, the T/C (dose: 100.0 mg/kg/injection, schedule: Q04DX003 (ip), vehicle: saline) was 104 % of control.

In the case of `COc1cccc2c1C(=O)c1c(O)c3c(c(O)c1C2=O)C[C@@](O)(C(=O)CO)C[C@@H]3OC1CC(NC(=S)Nc2ccc3ccccc3c2)C(O)C(C)O1` (stereo not given in full), the T/C runs as follows: (dose: 1.56 mg/kg/injection, schedule: Q01DX009 (ip), vehicle: saline) 95 % of control; (dose: 3.12 mg/kg/injection, schedule: Q01DX009 (ip), vehicle: saline) 86 % of control; under setting [4], 94 % of control; under setting [6], 99 % of control and 107 % of control; under setting [7], 107 % of control; under setting [8], 96 % of control.

For `O=C1CSCC(=O)O1`, the T/C reads like this: under setting [9], 105 % of control; under setting [10], 95 % of control; under setting [11], 95 % of control; under setting [12], 109 % of control.

In the case of `CN1CCC(C=C2c3ccccc3Sc3ccccc32)C1` (stereo not given), the T/C is 99 % of control under setting [4], 95 % of control under setting [5], 100 % of control under setting [6] and 101 % of control under setting [7].

On to `CC1(CNC(=O)C(=O)NCC2(C)CO2)CO1` (stereo not given), for which the T/C is, setting by setting: (dose: 50.0 mg/kg/injection, schedule: Q04DX003 (ip), vehicle: saline with Tween-80) 158 % of control; under setting [13], 154 % of control; under setting [14], 191 % of control; (dose: 132.0 mg/kg/injection, schedule: Q04DX003 (ip), vehicle: saline with Tween-80) 208 % of control; under setting [15], 183 % of control; (dose: 300.0 mg/kg/injection, schedule: Q04DX003 (ip), vehicle: saline with Tween-80) 233 % of control.

Regarding `Cc1ccccc1C(=O)NCC(=O)O`, the T/C under setting [14] was 104 % of control, the T/C under setting [15] is 100 % of control and the T/C under setting [16] was 100 % of control.

On to `Cc1ccc(NC(=O)Oc2ccc(Cl)c(C)c2)c([N+](=O)[O-])c1`, for which the T/C is 108 % of control (dose: 12.5 mg/kg/injection, schedule: Q01DX009 (ip), vehicle: saline with Tween-80); 102 % of control under setting [17]; 117 % of control under setting [18].

`CCCCCCCCCCCC#N`: the T/C by setting is: under setting [8], 95 % of control; under setting [19], 95 % of control; (dose: 400.0 mg/kg/injection, schedule: Q01DX009 (ip), vehicle: saline) 100 % of control.

Take `Clc1ccccc1CSc1ncnc2nc[nH]c12`: the T/C by setting is: under setting [1], 90 % of control; under setting [11], 95 % of control; under setting [2], 90 % of control; under setting [12], 100 % of control; under setting [3], 104 % of control; under setting [20], 100 % of control.

As for `CCCN([Si](C)(C)C)[Si](C)(C)C`, the T/C reads like this: under setting [18], 107 % of control; under setting [13], 107 % of control; under setting [14], 100 % of control; under setting [21], 100 % of control; under setting [15], 104 % of control.

Regarding `C1=CC2C3CC(OCCOC4CC5CC4C4CC=CC54)C(C3)C2C1` (stereo not given), the T/C was 115 % of control under setting [14], 115 % of control under setting [15] and 120 % of control under setting [16].

As for `O=C1c2ccccc2C2N1CCCN2C(=O)c1sc2ccccc2c1Cl` (stereo not given), the T/C is, setting by setting: under setting [18], 88 % of control; under setting [13], 86 % of control; under setting [21], 94 % of control.

For `CN(C)P(=O)(N(C)C)N(C)CC[N+](C)(C)C`, the T/C reads like this: under setting [7], 103 % of control; under setting [8], 101 % of control; under setting [19], 100 % of control.

In the case of `COc1cccc2c1C(=O)c1c(OC)cccc1C2=O`, the T/C (dose: 25.0 mg/kg/injection, schedule: Q04DX003 (ip), vehicle: Klucel (hydroxypropylcellulose) (HPC)) was 98 % of control; the T/C under setting [10] was 97 % of control; the T/C under setting [11] is 103 % of control; the T/C under setting [12] is 98 % of control; the T/C under setting [20] was 97 % of control.

With `CC(=O)N1C(=O)NC(=O)C1(C)c1ccco1` (stereo not given), the T/C reads like this: under setting [17], 122 % of control; under setting [18], 112 % of control; under setting [13], 103 % of control and 122 % of control; under setting [14], 109 % of control and 113 % of control; under setting [21], 92 % of control and 115 % of control; under setting [15], 104 % of control and 122 % of control. Moreover, the T/C by setting is: (dose: 400.0 mg/kg/injection, schedule: Q01DX009 (ip), vehicle: saline with Tween-80) 87 % of control; under setting [16], 90 % of control.

Regarding `CC1NC(C(=O)O)Cc2cc(O)c(O)cc21` (stereo not given), the T/C (dose: 12.5 mg/kg/injection, schedule: Q01DX009 (ip), vehicle: Klucel (hydroxypropylcellulose) (HPC)) was 109 % of control; the T/C (dose: 25.0 mg/kg/injection, schedule: Q01DX009 (ip), vehicle: Klucel (hydroxypropylcellulose) (HPC)) was 109 % of control; the T/C under setting [9] is 92 % of control and 99 % of control; the T/C under setting [1] is 101 % of control.
